Measurements taken from ChEMBL document CHEMBL1201861, “Genomics of Drug Sensitity in Cancer screening data, Wellcome Trust Sanger Institute”.

Experiments:
Experiment in all cases: cells
KY821 = assay type: functional, cell-based; details: Homo sapiens;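 further: growth inhibition of human KY821 cells, read out by a cell viability assay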
Description: SANGER: Inhibition of human KY821 cell growth in a cell viability assay.

ML-2 = assay type: functional, cell-based; details: Homo sapiens;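 further: growth inhibition of ML-2 cells, measured with a cell viability readout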
Description: SANGER: Inhibition of human ML-2 cell growth in a cell viability assay.

SW 962 = assay type: functional, cell-based, Homo sapiens; details: Homo sapiens, SW 962;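 further: growth inhibition of human SW962 cells, read out by a cell viability assay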
Description: SANGER: Inhibition of human SW962 cell growth in a cell viability assay.

MDA-MB-415 = assay type: functional, cell-based; details: Homo sapiens
OVCAR-8 = assay type: functional, cell-based, Homo sapiens; details: Homo sapiens, OVCAR-8;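 further: growth inhibition of human OVCAR-8 cells, read out by a cell viability assay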
Description: SANGER: Inhibition of human OVCAR-8 cell growth in a cell viability assay.

LK-2 = assay type: functional, cell-based, Homo sapiens; details: Homo sapiens, LK-2;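 further: growth inhibition of LK-2 cells, read out with a viability assay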
Description: SANGER: Inhibition of human LK-2 cell growth in a cell viability assay.

ES1 = assay type: functional, cell-based, Homo sapiens; details: Homo sapiens, ES1;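 further: growth inhibition of ES1 cells, read out with a cell viability assay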
Description: SANGER: Inhibition of human ES1 cell growth in a cell viability assay.

DSH1 = assay type: functional, cell-based, Homo sapiens; details: Homo sapiens, DSH1;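 further: growth inhibition of human DSH1 cells, measured with a cell viability readout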
Description: SANGER: Inhibition of human DSH1 cell growth in a cell viability assay.

SW1463 = assay type: functional, cell-based, Homo sapiens; details: Homo sapiens, SW1463;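 further: growth inhibition of SW1463 cells, determined with a cell viability assay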
Description: SANGER: Inhibition of human SW1463 cell growth in a cell viability assay.

TGBC24TKB = assay type: functional, cell-based, Homo sapiens; details: Homo sapiens, TGBC24TKB;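 further: growth inhibition of human TGBC24TKB cells, read out with a cell viability assay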
Description: SANGER: Inhibition of human TGBC24TKB cell growth in a cell viability assay.

HLE = assay type: functional, cell-based, Homo sapiens; details: Homo sapiens, HLE;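 further: growth inhibition of human HLE cells, read out by a cell viability assay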
Description: SANGER: Inhibition of human HLE cell growth in a cell viability assay.

CGTH-W-1 = assay type: functional, cell-based, Homo sapiens; details: Homo sapiens, CGTH-W-1;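 further: growth inhibition of human CGTH-W-1 cells measured by cell viability assay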
Description: SANGER: Inhibition of human CGTH-W-1 cell growth in a cell viability assay.

NCI-H1395 = assay type: functional, cell-based, Homo sapiens; details: Homo sapiens, NCI-H1395;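 further: cell viability assay read-out quantifying reduced proliferation of human NCI-H1395 cells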
Description: SANGER: Inhibition of human NCI-H1395 cell growth in a cell viability assay.

NCI-H446 = assay type: functional, cell-based; details: Homo sapiens;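 further: growth inhibition of NCI-H446 cells determined by a cell viability assay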
Description: SANGER: Inhibition of human NCI-H446 cell growth in a cell viability assay.

NEC8 = assay type: functional, cell-based, Homo sapiens; details: Homo sapiens, NEC8;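 further: growth inhibition of human NEC8 cells, read out by a cell viability assay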
Description: SANGER: Inhibition of human NEC8 cell growth in a cell viability assay.

SK-MEL-1 = assay type: functional, cell-based; details: Homo sapiens;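 further: growth inhibition of human SK-MEL-1 cells, read out by a cell viability assay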
Description: SANGER: Inhibition of human SK-MEL-1 cell growth in a cell viability assay.

PSN1 = assay type: functional, cell-based, Homo sapiens; details: Homo sapiens, PSN1;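 further: suppression of growth of human PSN1 cells, read out by a cell viability assay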
Description: SANGER: Inhibition of human PSN1 cell growth in a cell viability assay.

RMG-I = assay type: functional, cell-based, Homo sapiens; details: Homo sapiens, RMG-I;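 further: growth inhibition of human RMG-I cells, read out with a cell viability assay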
Description: SANGER: Inhibition of human RMG-I cell growth in a cell viability assay.

786-0 = assay type: functional, cell-based, Homo sapiens; details: Homo sapiens
Description: SANGER: Inhibition of human 786-0 cell growth in a cell viability assay.

SNU1 = assay type: functional, cell-based; details: Homo sapiens;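 further: growth inhibition of human NCI-SNU-1 cells, measured with a cell viability assay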
Description: SANGER: Inhibition of human NCI-SNU-1 cell growth in a cell viability assay.

CAKI-1 = assay type: functional, cell-based, Homo sapiens; details: Homo sapiens, CAKI-1;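 further: growth inhibition of CAKI-1 cells, measured by a cell viability assay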
Description: SANGER: Inhibition of human CAKI-1 cell growth in a cell viability assay.

HCC2218 = assay type: functional, cell-based; details: Homo sapiens;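 further: cell viability assay read-out, with IC50 given as the concentration that inhibits growth of the cell line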
Description: SANGER: Inhibition of human HCC2218 cell growth in a cell viability assay.

KU-19-19 = assay type: functional, cell-based, Homo sapiens; details: Homo sapiens, KU-19-19
Description: SANGER: Inhibition of human KU-19-19 cell growth in a cell viability assay.

HGC-27 = assay type: functional, cell-based, Homo sapiens; details: Homo sapiens, HGC-27;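 further: growth inhibition of human HGC-27 cells, read out in a cell viability assay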
Description: SANGER: Inhibition of human HGC-27 cell growth in a cell viability assay.

Lu-65 = assay type: functional, cell-based; details: Homo sapiens;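 further: growth inhibition of Lu-65 cancer cells, read out by a cell viability assay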
Description: SANGER: Inhibition of human LU-65 cell growth in a cell viability assay.

MFH-ino = assay type: functional, cell-based; details: Homo sapiens;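 further: growth inhibition of human MFH-ino cells, read out by a cell viability assay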
Description: SANGER: Inhibition of human MFH-ino cell growth in a cell viability assay.

EOL1 = assay type: functional, cell-based; details: Homo sapiens;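 further: growth inhibition of EoL-1 cells, read out by a cell viability assay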
Description: SANGER: Inhibition of human EoL-1-cell cell growth in a cell viability assay.

EW-1 = assay type: functional, cell-based, Homo sapiens; details: Homo sapiens, EW-1
Description: SANGER: Inhibition of human EW-1 cell growth in a cell viability assay.

PA-1 = assay type: functional, cell-based, Homo sapiens; details: Homo sapiens, PA-1;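 further: IC50 for suppression of PA-1 cell proliferation, determined with a cell viability read-out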
Description: SANGER: Inhibition of human PA-1 cell growth in a cell viability assay.

A-427 = assay type: functional, cell-based, Homo sapiens; details: Homo sapiens, A-427;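 further: growth inhibition of human A-427 cells, read out by a cell viability assay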
Description: SANGER: Inhibition of human A427 cell growth in a cell viability assay.

J82 = assay type: functional, cell-based; details: Homo sapiens;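 further: growth inhibition of J82 cells, read out with a cell viability assay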
Description: SANGER: Inhibition of human J82 cell growth in a cell viability assay.

LB373-MEL-D = assay type: functional, cell-based, Homo sapiens; details: Homo sapiens, LB373-MEL-D;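 further: growth inhibition of the cell line, read out in a cell viability assay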
Description: SANGER: Inhibition of human LB373-MEL-D cell growth in a cell viability assay.

SiHa = assay type: functional, cell-based, Homo sapiens; details: Homo sapiens, SiHa;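 further: Viability-based readout of growth inhibition in SiHa cells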
Description: SANGER: Inhibition of human SiHa cell growth in a cell viability assay.

HCC1937 = assay type: functional, cell-based, Homo sapiens; details: Homo sapiens, HCC1937;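 further: growth inhibition measured with a cell viability read-out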
Description: SANGER: Inhibition of human HCC1937 cell growth in a cell viability assay.

HuTu80 = assay type: functional, cell-based, Homo sapiens, HUTU-80; details: Homo sapiens, HuTu80;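 further: growth inhibition of HuTu80 human cells, determined with a cell viability readout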
Description: SANGER: Inhibition of human HUTU-80 cell growth in a cell viability assay.

EW-11 = assay type: functional, cell-based, Homo sapiens; details: Homo sapiens, EW-11;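 further: growth inhibition of human EW-11 cells, measured with a cell viability assay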
Description: SANGER: Inhibition of human EW-11 cell growth in a cell viability assay.

EGI-1 = assay type: functional, cell-based, Homo sapiens; details: Homo sapiens, EGI-1;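 further: cell viability readout used to gauge growth inhibition of EGI-1 cells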
Description: SANGER: Inhibition of human EGI-1 cell growth in a cell viability assay.

EFO-27 = assay type: functional, cell-based, Homo sapiens; details: Homo sapiens, EFO-27;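 further: growth inhibition of EFO-27 cells, read out with a cell viability assay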
Description: SANGER: Inhibition of human EFO-27 cell growth in a cell viability assay.

NCI-H1770 = assay type: functional, cell-based; details: Homo sapiens;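 further: growth inhibition of NCI-H1770 cells determined with a viability readout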
Description: SANGER: Inhibition of human NCI-H1770 cell growth in a cell viability assay.

KMOE-2 = assay type: functional, cell-based; details: Homo sapiens;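 further: growth inhibition of human KMOE-2 cells, read out with a cell viability assay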
Description: SANGER: Inhibition of human KMOE-2 cell growth in a cell viability assay.

TE-9 = assay type: functional, cell-based, Homo sapiens; details: Homo sapiens, TE-9;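 further: cell growth inhibition, measured with a cell viability readout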
Description: SANGER: Inhibition of human TE-9 cell growth in a cell viability assay.

PC-14 = assay type: functional, cell-based, Homo sapiens; details: Homo sapiens, PC-14;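 further: cell viability assay measuring inhibition of PC-14 cell growth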
Description: SANGER: Inhibition of human PC-14 cell growth in a cell viability assay.

LS-1034 = assay type: functional, cell-based, Homo sapiens; details: Homo sapiens, LS-1034
Description: SANGER: Inhibition of human LS-1034 cell growth in a cell viability assay.

MC-IXC = assay type: functional, cell-based, Homo sapiens; details: Homo sapiens, MC-IXC;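 further: growth inhibition of MC-IXC cells, read out with a cell viability assay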
Description: SANGER: Inhibition of human MC-IXC cell growth in a cell viability assay.

NCI-H1993 = assay type: functional, cell-based, Homo sapiens; details: Homo sapiens, NCI-H1993;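 further: growth inhibition of the cancer cell line, assessed with a cell viability assay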
Description: SANGER: Inhibition of human NCI-H1993 cell growth in a cell viability assay.

5637 = assay type: functional, cell-based, Homo sapiens; details: Homo sapiens
Description: SANGER: Inhibition of human 5637 cell growth in a cell viability assay.

NCI-H661 = assay type: functional, cell-based, Homo sapiens; details: Homo sapiens, NCI-H661;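 further: cell viability assay read-out, IC50 being the concentration that inhibits growth of the cells by half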
Description: SANGER: Inhibition of human NCI-H661 cell growth in a cell viability assay.

SAS = assay type: functional, cell-based, Homo sapiens; details: Homo sapiens, SAS;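 further: growth inhibition of SAS cells, read out with a cell viability assay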
Description: SANGER: Inhibition of human SAS cell growth in a cell viability assay.

COLO-320-HSR = assay type: functional, cell-based; details: Homo sapiens;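 further: growth inhibition of COLO-320-HSR cells, determined with a cell viability assay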
Description: SANGER: Inhibition of human COLO-320-HSR cell growth in a cell viability assay.

P12-Ichikawa = assay type: functional, cell-based; details: Homo sapiens
HOP-62 = assay type: functional, cell-based, Homo sapiens; details: Homo sapiens, HOP-62;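 further: cell growth inhibition determined with a viability assay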
Description: SANGER: Inhibition of human HOP-62 cell growth in a cell viability assay.

CHL-1 = assay type: functional, cell-based, Homo sapiens; details: Homo sapiens, CHL-1;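 further: cell growth inhibition, read out with a cell viability assay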
Description: SANGER: Inhibition of human CHL-1 cell growth in a cell viability assay.

Measured: IC50

C[C@]1(O)C[C@@H](c2nc(-c3ccc4ccc(-c5ccccc5)nc4c3)c3c(N)nccn32)C1 [LINSITINIB]
1500 nM: TGBC24TKB
85.8 nM: EW-1
271 nM: LS-1034
284 nM: EW-11
107 nM: ES1
159 nM: ML-2
> 2560 nM: KY821 | SW 962 | MDA-MB-415 | OVCAR-8 | LK-2 | DSH1 | SW1463 | HLE | CGTH-W-1 | NCI-H1395 | NCI-H446 | NEC8 | SK-MEL-1 | PSN1 | RMG-I | 786-0 | SNU1 | CAKI-1 | HCC2218 | KU-19-19 | HGC-27 | Lu-65 | MFH-ino | EOL1 | PA-1 | A-427 | J82 | LB373-MEL-D | SiHa | HCC1937 | HuTu80 | EGI-1 | EFO-27 | KMOE-2 | TE-9 | PC-14 | NCI-H1993 | 5637 | NCI-H661 | SAS | P12-Ichikawa | HOP-62 | CHL-1
1510 nM: NCI-H1770
1990 nM: MC-IXC
414 nM: COLO-320-HSR
